Source: patent US20140275259A1, “Direct Lipid to Membrane Drug Delivery” (APPLIED BIORESEARCH, INC., priority 2013, published 2014)
Where two headings read alike, the source gives them in different places.

Legend:
[1] = dogs, rectal, aqueous solution; cited from earlier work
[2] = aqueous composition containing MBK, pH 7.0 and pH 9.6, 5 hours
Procedure: Cells in the digestive track, such as CACO-2 cells are typically used to model absorption in the small intestine. CACO-2 cells, developed by the Sloan-Kettering Institute from human epithelial colorectal adenocarcinoma cells, are widely used to predict drug absorption. […] permeability assay (PAMPA) uses an artificial cell membrane to model drug permeability. In either test, the drug is dissolved in an aqueous solution mimicking the target gastric fluid. The fluid is contacted with the membrane, and the passage of the drug through the membrane over a period of time is used to assess permeability.
PAMPA measures how quickly the drug can exit a water-solvated environment and pass through a cell membrane. Since most drugs are hydrophobic, it is expected that there will be significant absorption by the cells lining the digestive tract.

[3] = rat; for Halflife / Tmax: mean
in vivo = conditions: rat
[4] = Group B, intravenous, 1.37 mg/kg

Row | Structure (SMILES) | absorption [1] | passage of drug through the artificial cell membrane (PAMPA) [2] | Halflife [3, 4] | Tmax [3, 4] | Tmax ([3]; Group C, rectal suppository, 213.5 mg/kg) | Halflife ([3]; Group C, rectal suppository, 213.5 mg/kg, terminal elimination phase not observed, calculation interpolated) | drug absorbed within eight hours ([3]; suppository with MBK as the excipient) | bioavailability at 8 hours (in vivo) | AUC (in vivo; 213.5 mg/kg) | AUC(0-inf) (in vivo; 213.5 mg/kg) | Cmax (in vivo; 213.5 mg/kg) | AUC (in vivo; iv, 1.37 mg/kg) | AUC(0-inf) (in vivo; iv, 1.37 mg/kg) | Cmax (in vivo; iv, 1.37 mg/kg)
1 | O=C(O)CN(CCN(CC(=O)O)CC(=O)O)CC(=O)O [EDTA] | ~13% |  |  |  |  |  |  |  |  |  |  |  |  | 
2 | O=C([O-])CN(CCN(CC(=O)[O-])CC(=O)[O-])CC(=O)[O-].[Ca+2].[Na+].[Na+] [CaNa2EDTA, calcium disodium ethylenediaminetetraacetate] |  | completely negative | 1.50 h | 4.98 min | 25 min | 8.20^1 Hour | over 36.3% | 36.3% | 106000 ng·h/mL | 307000 ng·h/mL | 30600 ng/mL | 1860 ng·h/mL | 1910 ng·h/mL | 2070 ng/mL
